From patent US10648917B2, “Luminescent compositions and applications thereof” (THE PENN STATE RESEARCH FOUNDATION, priority 2015, dated 2020)
“Also recorded” adds a separate entry of the source.

Legend:
[1] = Time-resolved fluorescence lifetime (TCSPC); type: physicochemical
Experimental: Fluorescence lifetimes were determined by using the Time-Correlation Single Photon Counting (TCSPC) accessory to the FluroMax-4 (Horiba, NJ). NanoLED pulse light sources at wavelengths of 352 nm and 390 nm were used for excitation. For each decay curve, 10,000 photons were collected. Fluorescence lifetime decays were fitted with an exponential series according to equation 1 below:
[formula] where F(t) is the lifetime decay function with respect to time t, Ti is the lifetime value of the emitting species, A is the background offset, and Bi is the pre-exponential function of the emitting species. The method of least squares was used to quantify χ^2 based on the decay data and the fitting function, where χ^2 values smaller than 1.2 indicates a good fit; and values above 1.2 indicate need for multiple exponential fitting in equation 1. If the lifetime decay is dominated by one emitting species, the equation can be simplified to include only the first two terms. One exponential fitting is good for TPA based fluorophores. However, for DPR based fluorophores, only three exponential fitting gives a χ^2 smaller than 1.2. E. Computational Modeling
(§1) Absorbance Spectra were recorded on Tecan Infinite M200 Pro UV-vis spectroscopy, and fluorescence spectra were recorded on Horiba FluoroMax-4 fluorospectroscopy at concentrations below 0.1 O.D. unless otherwise indicated. Quantum Yields were measured on the Quantum φ Integrating Sphere accessory to the FluoroMax-4, while lifetime measurements were determined through the Time-Correlation Single Photon Counting (TCSPC) accessory to the FluroMax-4. TCSPC was utilized in conjunction with NanoLED pulsed diode light source with peak excitation wavelength at 352 nm and at 10,000 counts peak preset. Emission was collected at the fluorescence λmax, unless otherwise indicated. For all pH-dependence experiments, sample pH was adjusted with sulfuric acid or sodium hydroxide. For all chloride-dependent quenching experiments, magnesium chloride hexahydrate (Sigma Aldrich) was used.
Fluorescence lifetime decays were fitted with an exponential series according to equation 5 below:
[formula] Where F(t) is the lifetime decay function with respect to time t, Ti is the lifetime value of the emitting species, A is the background offset, and Bi is the pre-exponential function of the emitting species. If the lifetime decay is dominated by one emitting species, the equation can be simplified to include only the first two terms. Bi measures the relative amplitude of the specified fluorophore, where the percent contribution of the fluorophore to the lifetime decay, f, is derived from equation 6:
[formula] The method of least squares was used to quantify χ^2 based on the decay data and the fitting function, where χ^2 values under 1.2 indicates a good fit, and values above 1.2 indicate need for additional terms in equation 5. Typically, an additional exponential term was necessary to improve the χ^2 value and account for the presence of a negligible 6 ns species, deemed to stem from by-products of CFD synthesis, impurities, or CFD dimers. Since the contribution from this species was minor, often less than 5%, it was not included in lifetime analysis.

[2] = pH dependence of fluorescence / pH sensing; type: physicochemical
Experimental: as §1
pH Dependence of CA-Cys Fluorescence. Of all solvent and environmental factors that affect fluorescence, CA-Cys appeared to display the greatest sensitivity to changes in pH. […] From a detailed analysis of FIG. 13, four correlations were observed. Fluorescence properties of CA-Cys were invariable from high basicity to a pH of 4.84, from which the excitation λmax began to red-shift from 350 nm, emission λmax began to red-shift from 418 nm, maximum fluorescence intensity began to decrease, and quantum yield began to decrease. As acidity was increased, all four trends continued until pH 2.44, from which the excitation λmax plateaued at 365 nm, emission plateaued at 445 nm, and fluorescence intensity and quantum yield both experienced a short local plateau. Similarly, Stokes shift increased from 67 nm to 80 nm in high acidity. Lastly, absorbance λmax shifted similarly to that of the maximum excitation, while absorbance intensities remained relatively constant. […] All of these patterns were reminiscent of a pH-dependent equilibrium, thus the predominant mechanism of intensity quenching and bathochromic shifts was hypothesized to be attributed to changes in protolytic equilibria. The noticeably linear quenching of intensities past pH 1.63 is discussed with respect to lifetime analysis herein below.
There is a predictable, linear increase in intensity from pH 3 to 4.5. Furthermore, emission collected at a fixed 445 nm is shown in FIG. 15 to be an isobestic point where intensities are independent of pH (up to pH 1), which should greatly improve the functionality of CA-Cys as a pH sensor. In other words, utilizing 445 nm as a dual-wavelength reference point allows for background subtraction and normalization with respect to absorbance or concentration. […] Furthermore, I418 nm/I445 nm increases linearly in the region of pH 3 to 4.5 for accurate determination of pH within this region, plotted and fitted with an R^2 value of 0.982. To sum up, I418 nm/I445 nm values near 1.6 indicate pH above 4.5, values below 0.7 indicate highly acidic environments below pH 3, while any intermediate I418 nm/I445 nm values can determine the exact pH with good accuracy. It is important to note that CA-Cys fluorescence is in accordance with Kasha's rule, i.e. fluorescence occurs from the lowest excited state, S1→S0, thus the emission λmax is independent of the excitation wavelength, and a fluorescence excitation scan at a fixed emission of 418 nm or 445 nm would provide the maximum fluorescence intensity for that emission wavelength. Also of importance is the reliable range of the isobestic point, which is broken at high acidities (noticeably below pH 1) due to dynamic quenching effects.

[3] = test system: 3T3 cells; test: Fluorescence cell labelling, confocal microscopy; type: cell-based, mouse; conditions: 500 μg/ml for 24 hours; DAPI, FITC, Cy3 channels
[4] = Chlorine sensing by fluorescence titration; type: physicochemical
Source text: This chlorine detection method seems to be much more sensitive than for halide detection, as chlorine in tap water diluted 1:2 can be measured. Furthermore, because measurement is based on the titration point, the presence of halides in solution would only lower the slope of the fluorescence plots without affecting the titration point. In reverse order of what observed results for halide quenching, sensing of bromine is much less sensitive than chlorine. Visual confirmation of the titration point is possible with a UV lamp, allowing for a low-cost and low-tech method of chlorine determination. It should also be noted that by varying the use of amine-containing molecules used in the syntheses of fluorophores described herein, it was possible to tune the chloride sensing at neutral pH.

Structure (SMILES): CC(C(=O)O)N1C(=O)C=C(C(=O)O)CC1=O (stereo not shown) [CA-Ala]
- fluorescence lifetime τ1 ([1]; three exponential model): 0.95 ns
- fluorescence lifetime τ2 ([1]; three exponential model): 4.44 ns
- fluorescence lifetime τ3 ([1]; three exponential model): 10.35 ns
- pH of sharp colorimetric transition [2]: 9.75

Structure (SMILES): O=C(O)c1cc2n(c(=O)c1)C(C(=O)O)CS2 (stereo not shown) [CA-Cys]
- τ ([1]; Anion protolytic state): 11.19 ns
- τ ([1]; Dianion protolytic state (physiological pH)): 10.06 ns
- τ ([1]; Neutral protolytic state): Quenched
- fluorescence lifetime τ ([1]; one-exponential decay, pulsed excitation at 352 nm, maximum emission wavelength): 10.46 ns
- fluorescence from cells after uptake [3]: Strong fluorescence was observed; also recorded: strong DAPI-channel fluorescence
- emission transition (pH) [2]: 3.27
- isobestic absorption point (pH) [2]: 3.35
- I418 nm/I445 nm ratio ([2]; acidic range): 0.7
- I418 nm/I445 nm ratio ([2]; basic range): 1.6
- Stokes shift ([2]; before increase (basic)): 67 nm
- emission λmax plateau ([2]; from pH 2.44): 445 nm
- excitation λmax plateau ([2]; from pH 2.44): 365 nm
- quenching of emission intensity at fixed 418 nm ([2]; from pH 4.5-11 to pH 1-3): roughly 2.25 fold
- emission λmax ([2]; high basicity to pH 4.84): 418 nm
- excitation λmax ([2]; high basicity to pH 4.84): 350 nm
- Stokes shift ([2]; in high acidity): 80 nm
- quenching of overall fluorescence ([2]; upon protonation of first carboxyl group): 1.37 fold
- sensitivity to chlorine [4]: sensitive to chlorine
